The results in this text go back to patent publication US8778921B2, “Ansamycin hydroquinone compositions” (Infinity Pharmaceuticals, Inc., priority 2008, dated 2014).

Where a name gives a salt, the structure may show the parent alone.

The data set in a line: Stability at 40° C. and 75% relative humidity (percent purity by HPLC). The data set is classed as physicochemical. The settings on record: 40° C. and 75% RH; for Percent Purity of 17-AAG T = 0 Days / Percent Purity of 17-AAG T = 21 Days: Table 8; for Percent Purity of 17-BAG T = 0 Days / Percent Purity of 17-BAG T = 21 Days: Table 4; for Percent Purity of 17-FEAG T = 0 Days / Percent Purity of 17-FEAG T = 21 Days: Table 6. The procedure: As used herein, a “stable composition” refers a composition comprising a sulfur-containing compound and a baseline amount of the compound of formula (I) (e.g., such as percent purity as measured by HPLC) such that, after being subjected to standard stability conditions (e.g., 40° C. and 75% relative humidity) for a specified period of time (e.g., 1 day, 2 days, 3 days, 4 days, 5 days, 7 days, 14 days, 21 days, or 30 days), at least about 80% of the original amount of the compound of formula (I) remains in the composition (i.e., has not oxidized to a compound of formula (II) or degraded to other by-products). In certain embodiments, at least about 85%, at least about 90%, at least about 91%, at least about 92%, at least about 93%, at least about 94%, or at least about 95% of the original amount of the hydroquinone compound of formula (I) remains in the composition for a specified period of time (e.g., 1 day, 2 days, 3 days, 4 days, 5 days, 7 days, 14 days, 21 days, or 30 days).
The stability data for 17-AG-HQ of Example 2 when kept at 40° C. and 75% relative humidity (RH) is depicted in FIG. 8 (see Table 2 for tabulated stability data). It was observed that 17-AG-HQ of Example 2 completely oxidizes to its quinone form in two weeks at 40° C. and […] as determined by HPLC.

Setting [1] is: Table 14, formulations of 17-AG-HQ of Example 3.
Setting [2] is: Table 15, NaHSO3/mineral oil formulation of 17-AG-HQ of Example 3.

As to `C=CCNc1c(O)cc2c(O)c1C[C@@H](C)C[C@H](OC)[C@H](O)[C@@H](C)/C=C(\C)[C@H](OC(N)=O)[C@@H](OC)/C=C\C=C(/C)C(=O)N2` [17-AAG-HQ of Example 11A, 17-allylamino-geldanamycin hydroquinone], the “stability over a period of time compared to 17-AAG-HQ of Example 11B” value is “greater stability”. The “Percent Purity of 17-AAG T = 0 Days” value (T = 0 Days) was 99%. In addition, under “T = 21 Days”, the “Percent Purity of 17-AAG T = 21 Days” value worked out at 97%.

For `C=CCNc1c(O)cc2c(O)c1C[C@@H](C)C[C@H](OC)[C@H](O)[C@@H](C)/C=C(\C)[C@H](OC(N)=O)[C@@H](OC)/C=C\C=C(/C)C(=O)N2` [17-AAG-HQ of Example 11B, 17-allylamino-geldanamycin hydroquinone], where the note is “T = 0 Days”, the “Percent Purity of 17-AAG T = 0 Days” value was found to be 97%. Further, for the setting “T = 21 Days”, the “Percent Purity of 17-AAG T = 21 Days” value is listed as 2%. Also, the “Percent Purity of 17-AAG-HQ T = 0 Days” value (Table 19, Example 11B Formulations, T = 0 Days) is given as 97%. For the same compound, the “Percent Purity of 17-AAG-HQ T = 21 Days” value (Table 19, Example 11B Formulations, T = 21 Days) stood at 2%.

In the case of `CO[C@H]1/C=C\C=C(/C)C(=O)Nc2cc(O)c(N)c(c2O)C[C@@H](C)C[C@H](OC)[C@H](O)[C@@H](C)/C=C(\C)[C@@H]1OC(N)=O` [17-AG-HQ of Example 3, 17-amino-geldanamycin hydroquinone], the “stability over a period of time compared to 17-AG-HQ of Example 2” value was “greater stability”. Also, the “Percent Purity of 17-AG-HQ T = 0 Days” value (Table 2, T = 0 Days) amounted to 97%. Moreover, the “Percent Purity of 17-AG-HQ T = 2 Days” value (Table 2, T = 2 Days) is 93%. Where the note is “Table 2”, the “Percent Purity of 17-AG-HQ T = 5 Days” value was 91%, the “Percent Purity of 17-AG-HQ T = 14 Days” value is listed as 87% and the “Percent Purity of 17-AG-HQ T = 30 Days” value was 79%. Further, the “Percent Purity of 17-AG-HQ T = 21 Days” value (Table 2, T = 21 Days) is reported as 81%. The “Percent Purity of 17-AG-HQ T = 0 Days” value (Table 14, formulations of 17-AG-HQ of Example 3, T = 0 Days) is given as 97%. Moreover, under setting [1], the “Percent Purity of 17-AG-HQ T = 5 Days” value stood at 91% and the “Percent Purity of 17-AG-HQ T = 14 Days” value is reported as 87%. Besides, under “Table 14, formulations of 17-AG-HQ of Example 3, T = 21 Days”, the “Percent Purity of 17-AG-HQ T = 21 Days” value is reported as 81%. In addition, the “Percent Purity of 17-AG-HQ T = 0 Days” value (Table 15, NaHSO3/mineral oil formulation of 17-AG-HQ of Example 3, T = 0 Days) was found to be 97%. Also, under setting [2], the “Percent Purity of 17-AG-HQ T = 5 Days” value came out at 91% and the “Percent Purity of 17-AG-HQ T = 14 Days” value is 87%. The “Percent Purity of 17-AG-HQ T = 21 Days” value (Table 15, NaHSO3/mineral oil formulation of 17-AG-HQ of Example 3, T = 21 Days) is recorded as 81%.

As for `CO[C@H]1/C=C\C=C(/C)C(=O)Nc2cc(O)c(N)c(c2O)C[C@@H](C)C[C@H](OC)[C@H](O)[C@@H](C)/C=C(\C)[C@@H]1OC(N)=O` [17-AG-HQ of Example 4, 17-amino-geldanamycin hydroquinone], the “stability over a period of time compared to Examples 2 and 3” value is “greater stability”. Moreover, under “Table 2, T = 0 Days”, the “Percent Purity of 17-AG-HQ T = 0 Days” value stood at 99%. Also, under “Table 2”, the “Percent Purity of 17-AG-HQ T = 30 Days” value was found to be 97%.

For `CO[C@H]1/C=C\C=C(/C)C(=O)Nc2cc(O)c(N)c(c2O)C[C@@H](C)C[C@H](OC)[C@H](O)[C@@H](C)/C=C(\C)[C@@H]1OC(N)=O` [17-AG-HQ of Example 5, 17-amino-geldanamycin hydroquinone], the “stability over a period of time compared to Examples 2, 3 and 4” value is given as “greatest stability”. The “Percent Purity of 17-AG-HQ T = 0 Days” value (Table 2, T = 0 Days) was 99%. In addition, where the note is “Table 2”, the “Percent Purity of 17-AG-HQ T = 30 Days” value is 98%.

Take `CO[C@H]1/C=C\C=C(/C)C(=O)Nc2cc(O)c(N)c(c2O)C[C@@H](C)C[C@H](OC)[C@H](O)[C@@H](C)/C=C(\C)[C@@H]1OC(N)=O` [17-AG-HQ of Example 6A, 17-amino-geldanamycin hydroquinone]: the “stability over a period of time compared to 17-AG-HQ of Example 6B” value was “greater stability”. The “Percent Purity of 17-AG-HQ T = 0 Days” value (Table 2, T = 0 Days) is reported as 97%. The “Percent Purity of 17-AG-HQ T = 21 Days” value (Table 2, T = 21 Days) came out at 83%.

Turning to `CO[C@H]1/C=C\C=C(/C)C(=O)Nc2cc(O)c(N)c(c2O)C[C@@H](C)C[C@H](OC)[C@H](O)[C@@H](C)/C=C(\C)[C@@H]1OC(N)=O` [17-AG-HQ of Example 6B, 17-amino-geldanamycin hydroquinone], the “time in which the hydroquinone completely oxidizes to its quinone form” value (determined by HPLC) amounted to 3 weeks. For the same compound, the “Percent Purity of 17-AG-HQ T = 0 Days” value turned out to be 97% (Table 2, T = 0 Days) and 97% (Table 16, Example 6B Formulations, T = 0 Days). In addition, the “Percent Purity of 17-AG-HQ T = 21 Days” value runs as follows: (Table 2, T = 21 Days) 13%; (Table 16, Example 6B Formulations, T = 21 Days) 13%.

For the compound `CO[C@H]1/C=C\C=C(/C)C(=O)Nc2cc(O)c(N)c(c2O)C[C@@H](C)C[C@H](OC)[C@H](O)[C@@H](C)/C=C(\C)[C@@H]1OC(N)=O` [17-AG-HQ-HCl salt, 17-amino geldanamycin hydroquinone HCl Salt], the “Percent Purity of 17-AG-HQ T = 0 Days” value (Table 2, T = 0 Days) is recorded as 99%. Moreover, where the note is “Table 2”, the “Percent Purity of 17-AG-HQ T = 14 Days” value was 88% and the “Percent Purity of 17-AG-HQ T = 30 Days” value is reported as 74%.

On to `CO[C@H]1/C=C\C=C(/C)C(=O)Nc2cc(O)c(NCc3ccccc3)c(c2O)C[C@@H](C)C[C@H](OC)[C@H](O)[C@@H](C)/C=C(\C)[C@@H]1OC(N)=O` [17-BAG-HQ of Example 8A, 17-benzylamino-geldanamycin hydroquinone], for which the “stability over a period of time compared to 17-BAG-HQ of Example 8B” value is recorded as “greater stability”. In addition, the “Percent Purity of 17-BAG T = 0 Days” value (T = 0 Days) was 98%. For the same compound, under “T = 21 Days”, the “Percent Purity of 17-BAG T = 21 Days” value is 96%.

On to `CO[C@H]1/C=C\C=C(/C)C(=O)Nc2cc(O)c(NCc3ccccc3)c(c2O)C[C@@H](C)C[C@H](OC)[C@H](O)[C@@H](C)/C=C(\C)[C@@H]1OC(N)=O` [17-BAG-HQ of Example 8B, 17-benzylamino-geldanamycin hydroquinone], for which the “Percent Purity of 17-BAG T = 0 Days” value (T = 0 Days) is given as 98%. Under “T = 21 Days”, the “Percent Purity of 17-BAG T = 21 Days” value was found to be 11%. The “Percent Purity of 17-BAG-HQ T = 0 Days” value (Table 17, Example 8B Formulations, T = 0 Days) came out at 98%. For the same compound, the “Percent Purity of 17-BAG-HQ T = 21 Days” value (Table 17, Example 8B Formulations, T = 21 Days) was determined as 11%.

On to `CO[C@H]1/C=C\C=C(/C)C(=O)Nc2cc(O)c(NCCF)c(c2O)C[C@@H](C)C[C@H](OC)[C@H](O)[C@@H](C)/C=C(\C)[C@@H]1OC(N)=O` [17-FEAG-HQ of Example 10A, 17-(2-fluoroethylamino)-geldanamycin hydroquinone], for which the “stability over a period of time compared to 17-FEAG-HQ of Example 10B” value was “greater stability”. In addition, the “Percent Purity of 17-FEAG T = 0 Days” value (T = 0 Days) turned out to be 99%. In addition, the “Percent Purity of 17-FEAG T = 21 Days” value (T = 21 Days) stood at 96%.

With `CO[C@H]1/C=C\C=C(/C)C(=O)Nc2cc(O)c(NCCF)c(c2O)C[C@@H](C)C[C@H](OC)[C@H](O)[C@@H](C)/C=C(\C)[C@@H]1OC(N)=O` [17-FEAG-HQ of Example 10B, 17-(2-fluoroethylamino)-geldanamycin hydroquinone], the “Percent Purity of 17-FEAG T = 0 Days” value (T = 0 Days) is 97%. Also, the “Percent Purity of 17-FEAG T = 21 Days” value (T = 21 Days) was found to be 0%. For the same compound, where the note is “Table 18, Example 10B Formulations, T = 0 Days”, the “Percent Purity of 17-FEAG-HQ T = 0 Days” value was determined as 97%. For the same compound, where the note is “Table 18, Example 10B Formulations, T = 21 Days”, the “Percent Purity of 17-FEAG-HQ T = 21 Days” value is reported as 0%.
